Test [1] can be described thus: Modulation of capsid assembly in HBV genotype E assessed as inhibition of viral replication. The format is functional, Hepatitis B virus.
Test [2] is described as follows: Modulation of capsid assembly in HBV genotype A assessed as inhibition of viral replication. The format is functional, Hepatitis B virus.
Test [3] in a line: Modulation of capsid assembly in HBV genotype F assessed as inhibition of viral replication. The format is functional, Hepatitis B virus.
Test [4] is described as follows: Modulation of capsid assembly in HBV genotype G assessed as inhibition of viral replication. The test is classed as functional, Hepatitis B virus.
Test [5] is described as follows: Modulation of capsid assembly in HBV genotype H assessed as inhibition of viral replication. The test is classed as functional, Hepatitis B virus.
Test [6] can be described thus: Modulation of capsid assembly in HBV genotype C assessed as inhibition of viral replication. The format is functional, Hepatitis B virus.
A short description of test [7]: Modulation of capsid assembly in HBV genotype D assessed as inhibition of DNA replication. The test is classed as functional, Hepatitis B virus.
Test [8] can be described thus: Modulation of capsid assembly in HBV genotype B assessed as inhibition of viral replication. The test is classed as functional, Hepatitis B virus.
The subject of test [9] is Hepatitis B virus. Put plainly: Antiviral activity against HBV infected in human HepG2.2.15 cells. The test is classed as functional, organism-based.
Test [10] concerns Hepatitis B virus. In words: Antiviral activity against drug-resistant HBV infected in human HepG2.2.15 cells. The format is functional, organism-based.
For test [11], the system named is Hepatitis B virus. In words: Antiviral activity against HBV infected in human HepDES19 cells assessed as reduction in viral DNA replication measured after 72 hrs by q-PCR assay. The format is functional, organism-based. As to conditions: HepDES19, 72 h.
Test [12] deals with Hepatitis B virus. In words: Antiviral activity against HBV infected in human HepG2.2.15 cells assessed as reduction in HBeAg at 100 ug/ml measured after 7 day by enzyme immunoassay relative to control. The format is functional. As to conditions: HepG2.2.15, 168 h.
Test [13] concerns Hepatitis B virus. Put plainly: Antiviral activity against HBV infected in human HepG2.2.15 cells assessed as reduction in HBsAg at 100 ug/ml measured after 7 day by enzyme immunoassay relative to control. As to conditions: HepG2.2.15, 168 h. The test is classed as functional.
Test [14] concerns Hepatitis B virus. Put plainly: Antiviral activity against HBV infected in human HepG2.2.15 cells assessed as reduction in HBsAg measured after 7 day by enzyme immunoassay relative to control. As to conditions: HepG2.2.15, 168 h. The format is functional, organism-based.
The test system of test [15] is Hepatitis B virus. In words: Antiviral activity against HBV infected in human HepDES19 cells assessed as reduction in viral rcDNA level measured after 7 days by a branched chain DNA hybridization assay. As to conditions: HepDES19, 168 h. The test is classed as functional, organism-based.
Test [16] deals with Hepatitis B virus. In words: Antiviral activity against HBV infected in human Primary hepatocyte cells assessed as reduction in HBsAg level. The format is functional, organism-based.
In test [17] the test system is Hepatitis B virus. In words: Antiviral activity against HBV infected in human HepG2-hNTCP cells assessed as reduction in HBsAg level. The format is functional, organism-based.
Test [18] relates to Hepatitis B virus. Put plainly: Antiviral activity against HBV infected in human Primary hepatocyte cells assessed as reduction in HBeAg level. The test is classed as functional, organism-based.
In test [19] the test system is Hepatitis B virus. Put plainly: Antiviral activity against HBV infected in human HepG2.2.15 cells assessed as reduction in viral DNA level. The format is functional, organism-based.
Test [20] has as its system Hepatitis B virus. Put plainly: Antiviral activity against HBV infected in human Primary hepatocyte cells assessed as reduction in pgRNA level. The test is classed as functional, organism-based.
Test [21] concerns Hepatitis B virus. Put plainly: Antiviral activity against HBV infected in human HepG2-hNTCP cells assessed as reduction in pgRNA level. The format is functional, organism-based.
In test [22] the test system is Hepatitis B virus. In words: Antiviral activity against HBV infected in human HepG2-hNTCP cells assessed as reduction in HBeAg level. The test is classed as functional, organism-based.
Test [23] has as its system Hepatitis B virus. In words: Antiviral activity against HBV infected in human HepG2-NTCP12 cells assessed as reduction in viral DNA measured after 7 days by q-PCR assay. As to conditions: HepG2-NTCP12, 168 h. The format is functional, organism-based.
Test [24] deals with Hepatitis B virus. Put plainly: Antiviral activity against HBV stably transfected in human HepDES19 cells assessed as reduction in viral DNA measured after 7 days by q-PCR assay. The format is functional, organism-based. As to conditions: HepDES19, 168 h.
The test system of test [25] is Hepatitis B virus. In words: Antiviral activity against HBV infected in human HepG2.2.15 cells assessed as reduction in HBsAg level measured after 144 hrs by ELISA. The test is classed as functional, organism-based. As to conditions: HepG2.2.15, 144 h. (In general: An ELISA detects its analyte on a solid surface through an enzyme-linked reagent.)
Test [26] concerns Hepatitis B virus. In words: Antiviral activity against HBV infected in human HepG2.2.15 cells assessed as reduction in HBeAg level measured after 144 hrs by ELISA. The test is classed as functional, organism-based. As to conditions: HepG2.2.15, 144 h.
Test [27] relates to Hepatitis B virus. Put plainly: Antiviral activity against HBV infected in human HepG2.2.15 cells assessed as reduction in cccDNA transcription. The format is functional, organism-based.
Test [28] relates to Hepatitis B virus. Put plainly: Antiviral activity against HBV infected in human HepG2 cells assessed as reduction in cccDNA transcription level. The format is functional, organism-based.
In test [29] the test system is Hepatitis B virus. In words: Antiviral activity against HBV infected in human HePAD38 cells assessed as reduction in cccDNA level. The test is classed as functional, organism-based.
In test [30] the test system is Hepatitis B virus. Put plainly: Antiviral activity against HBV infected in human HepDES19 cells assessed as reduction in cccDNA accumulation by southern blot analysis. The test is classed as functional, organism-based.
The subject of test [31] is Hepatitis B virus. In words: Antiviral activity against HBV infected in human HePAD38 cells assessed as inhibition of viral replication. The format is functional, organism-based.
Test [32] relates to Hepatitis B virus. In words: Antiviral activity against HBV infected in human HepG2.2.15 cells assessed as inhibition of viral replication. The test is classed as functional, organism-based.
For test [33], the system named is Hepatitis B virus. In words: Antiviral activity against HBV infected in human HepDE19 cells assessed as inhibition of viral replication. The test is classed as functional, organism-based.

Results on 20 compounds are retold here after ChEMBL document CHEMBL5346891, “Overview of the development of HBV small molecule inhibitors” (Eur J Med Chem, 2023).

Consider `C[C@H](NS(=O)(=O)c1cc(C(=O)Nc2ccc(F)c(C#N)c2)n(C)c1)C(F)(F)F` [BERSACAPAVIR], for which the concentration for a half-maximal effect (EC50) in test [1], in [2], in [3], in test [4], in test [5] and in [6] was 10 nM in each case. Also, the EC50 (in general, the concentration giving half of the maximal effect) stood at 17 nM in test [7] and 10 nM in test [8].

For the compound `CCOC(=O)C1=C(CN2CCOCC2)NC(c2nccs2)=N[C@H]1c1ccc(F)cc1Br`, the 50% effective concentration (EC50) with Hepatitis B virus [9] amounted to 1 nM; in the test with Hepatitis B virus [10], 10 nM.

Regarding `COc1ccccc1CO/N=C(\C)c1c(C)cc(=O)n(O)c1O`, the EC50 in the test with Hepatitis B virus [11] came out at 500 nM.

Take `O=C(/C=C/c1ccc(O)c(O)c1)O[C@@H]1C[C@](O)(C(=O)O)C[C@@H](OC(=O)/C=C/c2ccc(O)c(O)c2)[C@H]1O`: the inhibition (in general, the share of the control response that was lost under treatment) at 100 µg/mL in the test with Hepatitis B virus [12] came out at 73%; in the test with Hepatitis B virus [13] it was 81%. For the same compound, the 50% effective concentration (EC50) in the test with Hepatitis B virus [14] was found to be 90.5 µM.

For `C/C(=N\OCc1ccc(F)cc1)c1c(C)cc(=O)n(O)c1O`, the values for the half-maximal effective concentration (EC50) in the test with Hepatitis B virus [15] and in the test on Hepatitis B virus [11] were 100 nM and 110 nM, respectively.

On to `C/C(=N\OCc1ccccc1F)c1c(C)cc(=O)n(O)c1O`, for which the EC50 came to 330 nM in the test on Hepatitis B virus [15] and 320 nM in the test on Hepatitis B virus [11].

For `O=C(NCc1cnc(C(F)(F)F)s1)c1ccc2c(c1)NC(=O)c1ccccc1S2(=O)=O` [VEBICORVIR], the EC50 turned out to be 1840 nM with Hepatitis B virus [16]; 1840 nM in the test with Hepatitis B virus [17]; 1840 nM with Hepatitis B virus [18]; 173 nM with Hepatitis B virus [19]; 1840 nM with Hepatitis B virus [20]; 1840 nM in the test on Hepatitis B virus [21]. Also, the EC50 with Hepatitis B virus [22] is 1840 nM.

Turning to `CC(=O)c1cc(O)c(=O)c(O)cc1C`, the EC50 in the test on Hepatitis B virus [23] turned out to be 57 nM; in the test with Hepatitis B virus [24] it was 290 nM.

Take `C=C(C)[C@@H]1CC[C@]2(C(=O)OC)CC[C@]3(COC(=O)c4ccccc4)[C@H](CC[C@@H]4[C@@]5(C)CC[C@H](OC(C)=O)C(C)(C)[C@@H]5CC[C@]43C)[C@H]12`: the EC50 in the test with Hepatitis B virus [25] and with Hepatitis B virus [26] was 8.9 µM in each case.

On to `O=C(/C=C/c1ccc(O)c(O)c1)O[C@@H]1[C@H](O)C[C@@](O)(C(=O)O)C[C@H]1OC(=O)/C=C/c1ccc(O)c(O)c1`, for which the figures for the inhibition at 100 µg/mL in the test with Hepatitis B virus [12] and in the test with Hepatitis B virus [13] were 81% and 90%, respectively. The EC50 with Hepatitis B virus [14] is 31.9 µM.

Take `O=C1OCc2c1cc1ccc3c(c1c2-c1ccc2c(c1)OCO2)OCO3` [HELIOXANTHIN]: in the test with Hepatitis B virus [27], the EC50 stood at 160 nM.

In the case of `C/C(=N\OCc1ccc(C)cc1)c1c(C)cc(=O)n(O)c1O`, the concentration giving a half-maximal response (EC50) with Hepatitis B virus [11] stood at 460 nM.

`CN[C@@H](C)C(=O)N[C@H]1CN(S(=O)(=O)c2cccc(S(=O)(=O)N3CC[C@H]4CC[C@@H](C(=O)NC(c5ccccc5)c5ccccc5)N4C(=O)[C@@H](NC(=O)[C@H](C)NC)C3)c2)CC[C@H]2CC[C@@H](C(=O)NC(c3ccccc3)c3ccccc3)N2C1=O`: the EC50 with Hepatitis B virus [28] is 20 nM.

On to `Cc1c(C(=O)C(=O)NCC#N)c(C)n(C)c1C(=O)Nc1ccc(F)c(F)c1`, for which the EC50 in the test with Hepatitis B virus [29] amounted to 3 nM.

For `COc1ccc(CO/N=C(\C)c2c(C)cc(=O)n(O)c2O)cc1`, the half-maximal effective concentration (EC50) in the test with Hepatitis B virus [15] came to 400 nM; with Hepatitis B virus [11] it was 260 nM.

`Cc1c(O)c2cc(Br)cnc2n(O)c1=O`: the values for the 50% effective concentration (EC50) in the test on Hepatitis B virus [23] and in the test with Hepatitis B virus [24] were 78 nM and 1500 nM, respectively.

`O=C(CN(c1cc(C(F)(F)F)ccc1Cl)S(=O)(=O)c1ccccc1)NCc1ccncc1`: the EC50 in the test on Hepatitis B virus [30] was determined as 10 µM.

For the compound `CCOC(=O)C1=C(CN2CCN3C(=O)N(CC(C)(C)C(=O)O)C[C@@H]3C2)N=C(c2nccs2)N[C@H]1c1cccc(F)c1C` [LINVENCORVIR], the half-maximal effective concentration (EC50) amounted to 18 nM with Hepatitis B virus [31], 17 nM in the test on Hepatitis B virus [32] and 27 nM with Hepatitis B virus [33].

As for `Cc1nc2cc(NC(=O)c3ccc(S(=O)(=O)N(C)Cc4ccccc4)cc3)ccc2s1`, the EC50 in the test with Hepatitis B virus [30] was determined as 3 µM.

For `C/C(=N\OCc1ccccc1)c1c(C)cc(=O)n(O)c1O`, the concentration for a half-maximal effect (EC50) in the test on Hepatitis B virus [11] stood at 540 nM.
